Data published in ChEMBL document CHEMBL1828590 (J Med Chem, 2011).
Activity calls are given as the source filed them. The calls are words filed in the database; no cut-off is given here.

Columns and labels:
[1] = Time required for attaining concentration above IC50 of HCT116 in tumor of nude BALB/c mouse xenografted with HCT116 cells at 100 mg/kg, po administered as single dose; assay type: ADME, organism-based, Neoplasm, HCT-116; design: dose 100 mg/kg, route oral; settings: in vivo
[2] = Plasma protein binding in dog at 1000 ng/mL; assay type: ADME, cell-free, Canis lupus familiaris; settings: read-out: PPB (converted)
[3] = biological target: Stromelysin-1 (Homo sapiens) (UniProt P08254); test: Inhibition of MMP3 at 10 uM
Chain of Stromelysin-1 (Homo sapiens) (P08254 100-477 limits assumed): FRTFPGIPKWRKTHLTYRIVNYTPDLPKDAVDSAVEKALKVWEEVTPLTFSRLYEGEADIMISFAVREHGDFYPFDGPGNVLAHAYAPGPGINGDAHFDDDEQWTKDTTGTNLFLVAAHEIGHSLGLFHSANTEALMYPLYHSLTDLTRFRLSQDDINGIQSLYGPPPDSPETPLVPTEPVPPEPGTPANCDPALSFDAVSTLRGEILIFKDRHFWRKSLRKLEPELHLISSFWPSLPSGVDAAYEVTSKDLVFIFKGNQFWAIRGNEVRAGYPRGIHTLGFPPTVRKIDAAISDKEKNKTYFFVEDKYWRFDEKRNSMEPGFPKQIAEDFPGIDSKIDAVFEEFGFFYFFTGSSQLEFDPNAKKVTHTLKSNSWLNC

[4] = biological target: Matrix metalloproteinase-9 (Homo sapiens) (UniProt P14780); test: Inhibition of MMP9 at 10 uM
Chain of Matrix metalloproteinase-9 (Homo sapiens) (P14780 whole entry): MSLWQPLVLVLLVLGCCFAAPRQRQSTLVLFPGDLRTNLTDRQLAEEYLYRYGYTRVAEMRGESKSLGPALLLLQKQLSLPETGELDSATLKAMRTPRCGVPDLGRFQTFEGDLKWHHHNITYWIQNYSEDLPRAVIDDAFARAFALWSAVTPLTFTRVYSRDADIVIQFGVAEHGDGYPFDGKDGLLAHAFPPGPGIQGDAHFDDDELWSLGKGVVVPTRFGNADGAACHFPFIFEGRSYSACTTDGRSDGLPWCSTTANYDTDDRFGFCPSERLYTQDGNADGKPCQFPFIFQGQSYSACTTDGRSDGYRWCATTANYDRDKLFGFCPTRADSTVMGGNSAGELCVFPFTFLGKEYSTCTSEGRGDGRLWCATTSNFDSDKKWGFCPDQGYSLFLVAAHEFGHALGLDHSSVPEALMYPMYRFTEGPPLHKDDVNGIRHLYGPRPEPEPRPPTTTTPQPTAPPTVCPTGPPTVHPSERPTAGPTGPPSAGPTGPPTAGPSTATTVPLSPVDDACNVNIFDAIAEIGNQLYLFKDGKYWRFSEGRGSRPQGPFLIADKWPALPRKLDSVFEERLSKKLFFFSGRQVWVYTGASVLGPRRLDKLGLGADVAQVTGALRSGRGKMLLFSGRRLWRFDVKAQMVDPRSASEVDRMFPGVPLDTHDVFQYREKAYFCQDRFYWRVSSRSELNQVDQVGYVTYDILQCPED

HCT-116 [5] = test: Antitumor activity against human HCT116 cells xenografted in nude BALB/c mouse assessed as tumor growth inhibition at 100 mg/kg, po qd for 21 days measured on day 15 measured on day 15; assay type: functional; settings: read-out: TGI
[6] = Half life in mouse liver microsomes; assay type: ADME, Microsome; settings: liver microsomes
[7] = Solubility of the compound in water at pH 2.2; assay type: physicochemical
[8] = Solubility of the compound in 0.9% NaCl; assay type: physicochemical
[9] = Solubility of the compound in phosphate buffer at pH 4.5; assay type: physicochemical
[10] = Half life in dog liver microsomes; assay type: ADME, Canis lupus familiaris, Microsome
[11] = Kinetic solubility of the compound at pH 7 with […] DMSO; assay type: physicochemical; settings: buffer, read-out: Kinetic_solubility
[12] = Apparent permeability from apical to basolateral side of human Caco2 cells; assay type: ADME, cell-based; settings: Caco-2
[13] = Apparent permeability from basolateral to apical side of human Caco2 cells; assay type: ADME, cell-based; settings: Caco-2
[14] = Terminal half life in nude BALB/c mouse at 10 mg/kg, iv; assay type: ADME, organism-based; design: dose 10 mg/kg, route intravenous; settings: in vivo, read-out: beta t1/2 (converted)
[15] = Volume of distribution at steady state in nude BALB/c mouse at 10 mg/kg, iv; assay type: ADME, organism-based; design: dose 10 mg/kg, route intravenous; settings: in vivo, read-out: Vdss
[16] = Cmax in nude BALB/c mouse at 50 mg/kg, po; assay type: ADME, organism-based; design: dose 50 mg/kg, route oral; settings: in vivo
[17] = Tmax in nude BALB/c mouse at 50 mg/kg, po; assay type: ADME, organism-based; design: dose 50 mg/kg, route oral; settings: in vivo
[18] = Terminal half life in nude BALB/c mouse at 50 mg/kg, po; assay type: ADME, organism-based; design: dose 50 mg/kg, route oral; settings: in vivo, read-out: beta t1/2 (converted)
[19] = Apparent oral clearance in nude BALB/c mouse at 50 mg/kg, po; assay type: ADME, organism-based; design: dose 50 mg/kg, route oral; settings: in vivo
[20] = AUC (0 to infinity) in nude BALB/c mouse at 50 mg/kg, po; assay type: ADME, organism-based; design: time infinity, dose 50 mg/kg, route oral; settings: plasma
[21] = Terminal half life in Wistar rat at 2 mg/kg, iv; assay type: ADME, organism-based; design: dose 2 mg/kg, route intravenous; settings: in vivo, read-out: beta t1/2 (converted)
[22] = Apparent oral clearance in Wistar rat at 2 mg/kg, iv; assay type: ADME, organism-based; design: dose 2 mg/kg; settings: in vivo
[23] = AUC (0 to infinity) in Wistar rat at 2 mg/kg, iv; assay type: ADME, organism-based; design: time infinity, dose 2 mg/kg, route intravenous; settings: plasma
[24] = Apparent oral clearance in Wistar rat at 10 mg/kg, po; assay type: ADME, organism-based; design: dose 10 mg/kg, route oral; settings: in vivo
Mus musculus [25] = test: Toxicity in nude BALB/c mouse xenografted with human HCT116 cells assessed as body weight loss at 50 mg/kg, po QD for 21 days measured on day 17; assay type: organism-based, HCT-116; design: dose 50 mg/kg, route oral; settings: in vivo, 504 h
Mus musculus [26] = test: Toxicity in nude BALB/c mouse xenografted with human HCT116 cells assessed as body weight loss at 100 mg/kg, po QD for 21 days measured on day 19; assay type: organism-based, HCT-116; design: dose 100 mg/kg, route oral; settings: in vivo, 504 h
Mus musculus [27] = test: Toxicity in nude BALB/c mouse xenografted with human HCT116 cells assessed as body weight loss at 200 mg/kg, po QD for 21 days measured on day 6; assay type: organism-based, HCT-116; design: dose 200 mg/kg, route oral; settings: in vivo, 504 h
Mus musculus [28] = test: Toxicity in nude BALB/c mouse xenografted with human HCT116 cells assessed as body weight loss at 100 mg/kg, po QD for 21 days measured on day 20; assay type: organism-based, HCT-116; design: dose 100 mg/kg, route oral; settings: in vivo, 504 h
Mus musculus [29] = test: Toxicity in nude BALB/c mouse xenografted with human HCT116 cells assessed as mouse survival at 50 mg/kg, po QD for 21 days measured on day 22; assay type: organism-based, HCT-116; design: dose 50 mg/kg, route oral; settings: in vivo, 504 h
Mus musculus [30] = test: Toxicity in nude BALB/c mouse xenografted with human HCT116 cells assessed as mouse survival at 100 mg/kg, po QD for 21 days measured on day 22; assay type: organism-based, HCT-116; design: dose 100 mg/kg, route oral; settings: in vivo, 504 h
[31] = Terminal half life in Beagle dog at 2 mg/kg, iv; assay type: ADME, organism-based, Canis lupus familiaris; design: dose 2 mg/kg, route intravenous; settings: in vivo, read-out: beta t1/2 (converted)
[32] = Apparent oral clearance in Beagle dog at 2 mg/kg, iv; assay type: ADME, organism-based, Canis lupus familiaris; design: dose 2 mg/kg; settings: in vivo
[33] = Cmax in Beagle dog at 10 mg/kg, po; assay type: ADME, organism-based, Canis lupus familiaris; design: dose 10 mg/kg, route oral; settings: in vivo
[34] = Tmax in Beagle dog at 10 mg/kg, po; assay type: ADME, organism-based, Canis lupus familiaris; design: dose 10 mg/kg, route oral; settings: in vivo
[35] = Terminal half life in Beagle dog at 10 mg/kg, po; assay type: ADME, organism-based, Canis lupus familiaris; design: dose 10 mg/kg, route oral; settings: in vivo, read-out: beta t1/2 (converted)
[36] = Apparent oral clearance in Beagle dog at 10 mg/kg, po; assay type: ADME, organism-based, Canis lupus familiaris; design: dose 10 mg/kg, route oral; settings: in vivo
[37] = AUC (0 to infinity) in Beagle dog at 10 mg/kg, po; assay type: ADME, organism-based, Canis lupus familiaris; design: time infinity, dose 10 mg/kg, route oral; settings: plasma
HCT-116 [38] = test: Antitumor activity against human HCT116 cells xenografted in nude BALB/c mouse assessed as tumor growth inhibition at 100 mg/kg, po qd for 21 days; assay type: functional; settings: HCT-116, 504 h, read-out: TGI
MV4-11 [39] = test: Antiproliferative activity against human MV4-11 cells; assay type: functional, cell-based
Ramos [40] = test: Antiproliferative activity against human Ramos cells; assay type: functional, cell-based
PC-3 [41] = test: Antiproliferative activity against human PC3 cells; assay type: functional, cell-based
A2780 = test: Antitumor activity against human A2780 cells xenografted in nude BALB/c mouse assessed as tumor growth inhibition at 50 mg/kg, po qd for 21 days measured on day 9; assay type: functional; settings: read-out: TGI
Mus musculus [42] = test: Toxicity in nude BALB/c mouse xenografted with human A2780 cells assessed as maximum body weight loss at 50 mg/kg, po QD for 21 days measured on day 13; assay type: organism-based; design: dose 50 mg/kg, route oral; settings: in vivo, 504 h
Mus musculus [43] = test: Toxicity in nude BALB/c mouse xenografted with human A2780 cells assessed as mortality at 100 mg/kg, po QD for 21 days measured on day 9; assay type: organism-based; design: dose 100 mg/kg, route oral; settings: in vivo, 504 h
PC-3 [44] = test: Antitumor activity against human PC3 cells xenografted in nude BALB/c mouse assessed as tumor growth inhibition at 50 mg/kg, po qd for 21 days measured on day 22; assay type: functional; settings: read-out: TGI
Mus musculus [45] = test: Toxicity in nude BALB/c mouse xenografted with human PC3 cells assessed as maximum body weight loss at 50 mg/kg, po QD for 21 days measured on day 17; assay type: organism-based, PC-3; design: dose 50 mg/kg, route oral; settings: in vivo, 504 h
Mus musculus [46] = test: Toxicity in nude BALB/c mouse xenografted with human PC3 cells assessed as mortality at 50 mg/kg, po QD for 21 days measured on day 22; assay type: organism-based, PC-3; design: dose 50 mg/kg, route oral; settings: in vivo, 504 h
Ramos [47] = test: Antitumor activity against human Ramos cells xenografted in nude BALB/c mouse assessed as tumor growth inhibition at 50 mg/kg, po qd for 21 days measured on day 15; assay type: functional; settings: read-out: TGI
Mus musculus [48] = test: Toxicity in nude BALB/c mouse xenografted with human Ramos cells assessed as mortality at 50 mg/kg, po QD for 21 days measured on day 15; assay type: organism-based; design: dose 50 mg/kg, route oral; settings: in vivo, 504 h
MV4-11 [49] = test: Antitumor activity against human MV4-11 cells xenografted in nude BALB/c mouse assessed as tumor growth inhibition at 50 mg/kg, po qd for 21 days measured on day 21; assay type: functional; settings: MV4-11, 504 h, read-out: TGI
Mus musculus [50] = test: Toxicity in nude BALB/c mouse xenografted with human MV4-11 cells assessed as maximum body weight loss at 50 mg/kg, po QD for 21 days measured on day 19; assay type: organism-based; design: dose 50 mg/kg, route oral; settings: in vivo, 504 h

## CCCCc1nc2cc(/C=C/C(=O)NO)ccc2n1CCN(CC)CC.Cl.Cl
[1]
  Time: 7.1 h
[2]
  fraction unbound at 1000 ng/mL: 0.165
[3]
  inhibition: inactive
[4]
  inhibition: inactive
HCT-116 [5]
  inhibition in vivo at 100 mg/kg: 97%
[6]
  half-life: 0.45 h
[7]
  solubility: > 100 mg/mL
[8]
  solubility: > 50 mg/mL
[9]
  solubility: > 50 mg/mL
[10]
  half-life: > 1 h
[11]
  solubility kinetic: > 200 µM
[12]
  Papp A→B: 7.04 ×10⁻⁶ cm/s
[13]
  Papp B→A: 19.4 ×10⁻⁶ cm/s
[14]
  half-life: 2.26 h
[15]
  Vd: 3.46 L/kg
[16]
  Cmax: 6.1 µM
[17]
  Tmax: 0.17 h
[18]
  half-life: 2.44 h
[19]
  CL/F: 453 mL/min/kg
[20]
  AUC(0-inf): 4.27 µM·h
[21]
  half-life: 0.89 h
[22]
  CL/F: 74.2 mL/min/kg
[23]
  AUC(0-inf): 1.15 µM·h
[24]
  CL/F: 2550 mL/min/kg
Mus musculus [25]
  Activity: 6.4%
Mus musculus [26]
  Activity: 14.6%
Mus musculus [27]
  Activity: 25.5%
Mus musculus [28]
  Activity: 19.9%
Mus musculus [29]
  Activity: Non-toxic
Mus musculus [30]
  Activity: Non-toxic
[31]
  half-life: 3.9 h
[32]
  CL/F: 24.2 mL/min/kg
[33]
  Cmax: 3.56 µM
[34]
  Tmax: 0.75 h
[35]
  half-life: 4.12 h
[36]
  CL/F: 38.2 mL/min/kg
[37]
  AUC(0-inf): 10.5 µM·h
HCT-116 [38]
  inhibition in vivo at 100 mg/kg: 90%
MV4-11 [39]
  IC50: 100 nM
Ramos [40]
  IC50: 140 nM
PC-3 [41]
  IC50: 340 nM
A2780
  inhibition in vivo at 50 mg/kg: 44%
Mus musculus [42]
  Activity: 8.9%
Mus musculus [43]
  Activity: Non-toxic
PC-3 [44]
  inhibition in vivo at 50 mg/kg: 66%
Mus musculus [45]
  Activity: 7.7%
Mus musculus [46]
  Activity: Non-toxic
Ramos [47]
  inhibition in vivo at 50 mg/kg: 75%
Mus musculus [48]
  Activity: Non-toxic
MV4-11 [49]
  inhibition in vivo at 50 mg/kg: 114%
Mus musculus [50]
  Activity: 7.1%
